# From US8008319B2, “Treatment of colorectal polyps with imidazoquinoline derivatives” (Meda Pharma GmbH & Co. KG, priority 2008, dated 2011)
# Columns and labels:
# [1] = test system: p53 expression in Caco-2 cells; assay: p53 mRNA expression in Caco-2 cells by quantitative real-time RT-PCR; assay type: cell-based
# Experimental: Imiquimod was dissolved in dimethyl sulfoxide (DMSO). Stock concentration was 10 mg/ml. From these stocks stepwise dilutions were prepared. […] The final concentration of DMSO was 0.1%.
# The colorectal adenocarcinoma cell line Caco-2 was obtained from ATCC [American Type Culture Collection], Wesel, Germany. The cells were plated in 24-well plates (BD Bioscience, Heidelberg, Germany). The cells were cultured in DMEM supplemented with 10% heat-inactivated foetal bovine serum and 10% non essential amino acids in a humidified atmosphere containing 5% CO2 at 37° C. When confluent, the cells were washed and resuspended in serum-free Dulbecco's Modified Eagle Medium (DMEM) at 10^6 cells ml^−1. […]
# RNA was prepared from frozen lysates using RNeasy, Qiagen (Hilden, Germany). One-tube Reverse Transcriptase-Polymerase Chain Reaction (RT-PCR) was performed using Quantitect Probe RT-PCR Kit from QIAGEN (Hilden, Germany). Expression of p53 was determined in relation to beta-actin by real time RT-PCR using SYBR Green assays on an ABI Prism 7900. […] Quantity of mRNA was calculated using […] method. For each RT-PCR the threshold cycle (CT) was determined, being defined as the cycle at which the fluorescence exceeds 10 times the standard deviation of the mean baseline emission for cycles 3 to 10. β-actin was used as a housekeeping gene to normalize mRNA levels: Ct (Parameter)−Ct (β-actin)=ΔCt (Parameter). […]
# MC-26 colon carcinoma = conditions: mice; oral treatment; cited from earlier work
# p53 = conditions: patients with Actinic Keratoses; under imiquimod therapy; cited from earlier work
compound,measurement,setting,value
"CC(C)Cn1cnc2c(N)nc3ccccc3c21 [imiquimod, 1-(2-methylpropyl)-1H-imidazo[4,5-c]quinolin-4-amine]",statistical significance of increase in p53 mRNA levels,"[1]; 10 and 100 μM imiquimod, one-way ANOVA with Dunnett's post-hoc",reached statistical significance
same,p53 mRNA expression (relative to beta-actin and vehicle control),"[1]; concentrations up to 100 μM, FIG. 1",increases p53 mRNA expression dose dependently
same,development of MC-26 colon carcinoma,MC-26 colon carcinoma,significantly inhibited the development of MC-26 colon carcinoma
same,gene expression for p53,p53,no differences in gene expression for p53 were found
